Measurements taken from patent US9603793B2, “Nano / micro bubbles for drug delivery” (National Tsing Hua University, priority 2014, dated 2017).

How the values were obtained:
cells = test: Cell images of cells co-cultured with the components (FITC-insulin transmission); type: cell-based; conditions: cells co-cultured with the component; stained with Cld 4, E-cadherin and DAPI; FIG. 3
[1] = Pharmacokinetic test of nano/micro bubbles (plasma insulin and blood glucose); type: in vivo; conditions: subcutaneous injection of insulin 5 IU/kg; 0 to 10 hours; FIG. 5b
Protocol: Pharmacokinetic Test of Nano/Micro Bubbles In the present example, groups comprising nano/micro bubbles of the present invention (containing 30 IU/kg of insulin), oral administration (30 IU/kg of insulin) and subcutaneous injection of insulin (5 IU/kg) are compared. The change rates in plasma insulin and blood glucose concentration from 0 to 10 hours after subjects taking insulin or injected with insulin were recorded respectively, and the results are illustrated in FIGS. 5a and 5b.

Molecule: O=C(O)CN(CCN1CC(=O)OC(=O)C1)CCN1CC(=O)OC(=O)C1 [DTPA dianhydride, diethylenetriaminepentaacetic dianhydride]
- transmission of FITC-insulin (paracellular / transcellular pathway) (cells): can promote transmission of FITC-insulin via paracellular pathway

Molecule: insulin
- change rate of the blood glucose [1]: rapidly declined and rose again

Molecule: CCCCCCCCCCCCOS(=O)(=O)[O-].[Na+] [SDS, sodium dodecyl sulfate]
- transmission of FITC-insulin (paracellular / transcellular pathway) (cells): can promote transmission of FITC-insulin via both of paracellular pathway and transcellular pathway
